Consider 21 compounds from US7410975B2, “Small molecule toll-like receptor (TLR) antagonists” (Coley Pharmaceutical Group, Inc., priority 2003, dated 2008).

The target of this assay is T1, human TLR3 (hTLR3) (Homo sapiens, UniProt O15455).
T1 construct: expressed in transfected cells
T1 sequence (O15455 24-904): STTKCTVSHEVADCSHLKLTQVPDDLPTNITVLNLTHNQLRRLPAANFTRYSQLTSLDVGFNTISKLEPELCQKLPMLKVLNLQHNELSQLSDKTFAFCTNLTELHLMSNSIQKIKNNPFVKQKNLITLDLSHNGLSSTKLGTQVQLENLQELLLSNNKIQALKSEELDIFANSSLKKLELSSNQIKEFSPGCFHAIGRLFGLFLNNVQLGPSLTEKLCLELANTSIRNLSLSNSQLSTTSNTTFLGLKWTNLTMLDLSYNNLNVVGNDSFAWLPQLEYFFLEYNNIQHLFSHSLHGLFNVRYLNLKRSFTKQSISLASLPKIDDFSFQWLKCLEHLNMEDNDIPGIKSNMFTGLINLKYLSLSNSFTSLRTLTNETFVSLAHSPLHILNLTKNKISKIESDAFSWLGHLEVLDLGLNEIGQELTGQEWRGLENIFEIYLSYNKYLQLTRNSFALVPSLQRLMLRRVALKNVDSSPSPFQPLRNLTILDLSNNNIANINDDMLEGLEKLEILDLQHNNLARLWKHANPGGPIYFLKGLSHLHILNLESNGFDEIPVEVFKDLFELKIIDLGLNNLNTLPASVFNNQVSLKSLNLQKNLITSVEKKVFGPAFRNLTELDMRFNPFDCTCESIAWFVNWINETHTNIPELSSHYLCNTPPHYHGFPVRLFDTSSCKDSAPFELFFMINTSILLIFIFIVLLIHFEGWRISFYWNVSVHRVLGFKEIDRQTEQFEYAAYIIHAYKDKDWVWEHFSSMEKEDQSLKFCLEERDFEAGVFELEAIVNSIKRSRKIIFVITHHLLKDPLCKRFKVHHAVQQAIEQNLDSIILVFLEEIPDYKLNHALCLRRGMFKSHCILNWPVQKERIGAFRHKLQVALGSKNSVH
Kind of assay: Antagonist screen, hTLR3-NFκB-293 cells, NF-κB-luciferase reporter, with EC50 of poly(I:C). Type of assay: cell-based. The conditions noted are these: compound at 0.5, 5, 50 μg/ml; EC50 concentration of poly(I:C); 16 h; NF-κB-luciferase. The protocol: The method is described in greater detail as follows. The cells for each individual cell clone (hTLR3-NFκB-293, hTLR7-NFκB-293, hTLR8-NFκB-293 and hTLR9-NFκB-293) were counted and seeded one day before the stimulation at 1.5×10^4 cells per well in 96-well cell culture plates. To become adherent the cells were incubated after seeding overnight at 37° C. in 5% CO2 humidified air.
The screen for each compound was performed at the same time for all of the receptors TLR3, TLR7, TLR8 and TLR9. Up to fifteen test compounds, each assayed in duplicate at each of three different final concentrations (0.5 μg/ml, 5 μg/ml, and 50 μg/ml), were used for 16 h cell stimulation on a single multiwell culture plate. A 4× final concentration master plate was created to prepare the different test compounds before they were added to the cells.
Controls were added as duplicates individually for each cell clone on the cell culture plate. Positive controls were used as follows (final concentrations): 50 μg/ml poly(I:C) for hTLR3-NFκB-293; 8 μM resiquimod (R848) for hTLR7-NFκB-293; 30 μM R848 for hTLR8-NFκB-293; and 2.5 μM CpG-ODN 2006 for hTLR9-NFκB-293. Media alone was used as negative control. After addition of controls and small molecules, the cell clones were additionally stimulated with the EC50 concentration of the appropriate receptor-specific ligand.
The mean value of wells H2 and H5 (each with cells and EC50 concentration of the appropriate receptor-specific ligand) divided by the mean of wells H3 and H6 (each with cells alone) yielded the baseline response (i.e., fold induction of luciferase activity) to EC50 concentration of the appropriate receptor-specific ligand.
After 16 h stimulation the supernatant was removed and the cells treated with lysis buffer and stored at −80° C. before measuring.
For each screen result a graphical documentation was performed.
The baseline result (measured with addition of the EC50 concentration of the receptor-specific ligand) for each cell culture plate was measured as described above. Antagonistic effects were measured by down regulation compared to the baseline. Antagonists were scored as follows: • 13: compounds for which there was clear down regulation at 0.5 μg/ml, 5 μg/ml, and 50 μg/ml; • 12: compounds for which there was clear down regulation at 5 μg/ml and 50 μg/ml; • 11: compounds for which there was clear down regulation only at 50 μg/ml; • —: compounds for which there was no clear down regulation even at 50 μg/ml. Agonists
Results were expressed as fold induction over baseline luciferase activity measured in the absence of poly(I:C). […] Additional screening was performed in like manner using additional small molecules selected from another library or specifically prepared for this purpose. Scoring is reported as above but as applied to TLR3.
Consider `O=C(O)c1ccc(C2(c3ccc(C(=O)O)cc3)OC(=O)c3ccccc32)cc1` [compound 970], for which the “hTLR3 (inhibitory effect, antagonist score)” value is listed as “— (compounds for which there was no clear down regulation even at 50 μg/ml)”.

For `Cc1cc(OC(=O)C2C3CCCCC32)c(C(C)C)cc1C1(c2cc(C(C)C)c(OC(=O)C3C4CCCCC43)cc2C)OC(=O)c2ccccc21` (stereo not drawn) [compound 974], the “hTLR3 (inhibitory effect, antagonist score)” value was 11 (compounds for which there was clear down regulation only at 50 μg/ml).

Take `CCN(CC)CCCN(CC(=O)C1c2ccc(Cl)cc2NC(=O)c2ccccc21)C(=O)c1ccccc1` (stereo not drawn) [compound 1013]: the “hTLR3 (inhibitory effect, antagonist score)” value is listed as “— (compounds for which there was no clear down regulation even at 50 μg/ml)”.

As for `O=C1c2ccccc2C(=O)c2c1ccc1c(=O)n(C3CCCCC3)[nH]c21` [compound 1015], the “hTLR3 (inhibitory effect, antagonist score)” value was “— (compounds for which there was no clear down regulation even at 50 μg/ml)”.

With `CCOC(=O)c1cc([N+](=O)[O-])cc2c1-c1ccc([N+](=O)[O-])cc1C2=C(C#N)C#N` [compound 1039], the “hTLR3 (inhibitory effect, antagonist score)” value is listed as “— (compounds for which there was no clear down regulation even at 50 μg/ml)”.

Turning to `O=C1c2ccccc2C(=O)c2c1ccc1c(=O)n(-c3ccccc3)[nH]c21` [compound 1042], the “hTLR3 (inhibitory effect, antagonist score)” value was 11 (compounds for which there was clear down regulation only at 50 μg/ml).

Turning to `O=C(c1cccc2c1-c1ccccc1/C2=N\O)N1CCCCC1` [compound 1050], the “hTLR3 (inhibitory effect, antagonist score)” value is 12 (compounds for which there was clear down regulation at 5 μg/ml and 50 μg/ml).

Consider `NC(=O)c1cccc2c1-c1ccccc1C2` [compound 1132], for which the “hTLR3 (inhibitory effect, antagonist score)” value is listed as 11 (compounds for which there was clear down regulation only at 50 μg/ml).

Regarding `NC(=O)c1cc(N)c2c(c1N)C(=O)c1ccccc1C2=O` [compound 1158], the “hTLR3 (inhibitory effect, antagonist score)” value is on record as “— (compounds for which there was no clear down regulation even at 50 μg/ml)”.

Regarding `CC(=O)Oc1cc(C)c(C2(c3cc(C(C)C)c(OC(C)=O)cc3C)OC(=O)c3ccccc32)cc1C(C)C` [compound 1161], the “hTLR3 (inhibitory effect, antagonist score)” value was 12 (compounds for which there was clear down regulation at 5 μg/ml and 50 μg/ml).

Turning to `COC(=O)c1cccc(C(O)(c2ccccc2)c2ccccc2)c1S(=O)(=O)C(C)(C)C` [compound 1187], the “hTLR3 (inhibitory effect, antagonist score)” value was 12 (compounds for which there was clear down regulation at 5 μg/ml and 50 μg/ml).

For the compound `CCOCCOC(=O)c1cc([N+](=O)[O-])cc2c1-c1c(cc([N+](=O)[O-])cc1[N+](=O)[O-])C2=C(C#N)C#N` [compound 1241], the “hTLR3 (inhibitory effect, antagonist score)” value was 11 (compounds for which there was clear down regulation only at 50 μg/ml).

On to `CC1CCN(C(=O)c2cccc3c2-c2ccccc2C3=O)CC1` [compound 1243], for which the “hTLR3 (inhibitory effect, antagonist score)” value was “— (compounds for which there was no clear down regulation even at 50 μg/ml)”.

`Cc1cccc(C2(c3cccc(C)c3)OC(=O)c3ccccc32)c1` [compound 1308]: the “hTLR3 (inhibitory effect, antagonist score)” value was 12 (compounds for which there was clear down regulation at 5 μg/ml and 50 μg/ml).

Take `COCCCNC(=O)c1ccc2c(c1N)C(=O)c1ccccc1C2=O` [compound 1337]: the “hTLR3 (inhibitory effect, antagonist score)” value was 11 (compounds for which there was clear down regulation only at 50 μg/ml).

Consider `O=C1Nc2ccccc2Oc2ccc([N+](=O)[O-])cc21` [compound 1352], for which the “hTLR3 (inhibitory effect, antagonist score)” value is “— (compounds for which there was no clear down regulation even at 50 μg/ml)”.

Take Flunarizinehydrochloride [compound 312]: the “hTLR3 (inhibitory effect, antagonist score)” value is reported as 11 (compounds for which there was clear down regulation only at 50 μg/ml).

Take Maprotilinehydrochloride [compound 346]: the “hTLR3 (inhibitory effect, antagonist score)” value is 11 (compounds for which there was clear down regulation only at 50 μg/ml).

With Metixene hydrochloride [compound 491], the “hTLR3 (inhibitory effect, antagonist score)” value was 12 (compounds for which there was clear down regulation at 5 μg/ml and 50 μg/ml).

For the compound “Prochlorperazinedimaleate [compound 399]”, the “hTLR3 (inhibitory effect, antagonist score)” value is 12 (compounds for which there was clear down regulation at 5 μg/ml and 50 μg/ml).

Take “Trifluoperazinedihydrochloride [compound 313]”: the “hTLR3 (inhibitory effect, antagonist score)” value is “— (compounds for which there was no clear down regulation even at 50 μg/ml)”.
